Source: patent publication US9827219B2, “Compositions and methods for lowering levels of high-sensitivity C-reactive protein (HS-CRP) in a subject” (priority 2012, dated 2017)

Experiments:
Format in all cases: in vivo, human
[1] = test system: FPG, HbA1c, insulin and HOMA-IR; test: Diabetes parameters (FPG, HbA1c, insulin, HOMA-IR) in patients with diabetes mellitus-2 (Example 2); settings: 4 g/day
Description: (§1) The effect of >96% E-EPA on lipid and inflammatory parameters was evaluated in patients with fasting triglyceride levels ≧150 mg/dl and <499 mg/dl on concomitant statin therapy. Patients with diabetes mellitus-2 were randomized and treated with either 2 g/day >96% E-EPA, 4 g/day >96%, or placebo for twelve weeks. At the end of the treatment period, several diabetes efficacy endpoints were evaluated including, TG, LDL-C, non-HDL-C, VLDL-C, Lp-PLA2, Apo B, TC, HDL-C, VLDL-TG, hs-CRP, oxLDL, and RLP-C.

TG = TG in patients with diabetes mellitus-2 (Example 2); settings: 4 g/day, 12 weeks, on statin
Excerpt: (§2) Parameters (a)-(y) can be measured in accordance with any clinically acceptable methodology. For example, triglycerides, total cholesterol, HDL-C and fasting blood sugar can be sample from serum and analyzed using standard photometry techniques. VLDL-TG, LDL-C and VLDL-C can be calculated or determined using serum lipoprotein fractionation by preparative ultracentrifugation and subsequent quantitative analysis by refractometry or by analytic ultracentrifugal methodology. Apo A1, Apo B and hsCRP can be determined from serum using standard nephelometry techniques. Lipoprotein (a) can be determined from serum using standard turbidimetric immunoassay techniques. LDL particle number and particle size can be determined using nuclear magnetic resonance (NMR) spectrometry. Remnants lipoproteins and LDL-phospholipase A2 can be determined from EDTA plasma or serum and serum, respectively, using enzymatic immunoseparation techniques. Oxidized LDL, intercellular adhesion molecule-1 and interleukin-2 levels can be determined from serum using standard enzyme immunoassay techniques. These techniques are described in detail in standard textbooks, for example Tietz Fundamentals of Clinical Chemistry, 6th Ed. […]
(§3) The effect of >96% E-EPA on lipid and inflammatory parameters was evaluated in patients with fasting triglyceride levels ≧150 mg/dl and <499 mg/dl on concomitant statin therapy. […]

Apo B = Apo B in patients with diabetes mellitus-2 (Example 2); settings: 4 g/day, 12 weeks, on statin
Excerpt: as §2, §3

Non-HDL-C = Non-HDL-C in patients with diabetes mellitus-2 (Example 2); settings: 4 g/day, 12 weeks, on statin
Description: as §1

RLP-C = RLP-C in patients with diabetes mellitus-2 (Example 2); settings: 4 g/day, 12 weeks, on statin
Excerpt: (§4) Parameters (a)-(y) can be measured in accordance with any clinically acceptable methodology. For example, triglycerides, total cholesterol, HDL-C and fasting blood sugar can be sample from serum and analyzed using standard photometry techniques. VLDL-TG, LDL-C and VLDL-C can be calculated or determined using serum lipoprotein fractionation by preparative ultracentrifugation and subsequent quantitative analysis by refractometry or by analytic ultracentrifugal methodology. Apo A1, Apo B and hsCRP can be determined from serum using standard nephelometry techniques. Lipoprotein (a) can be determined from serum using standard turbidimetric immunoassay techniques. LDL particle number and particle size can be determined using nuclear magnetic resonance (NMR) spectrometry. Remnants lipoproteins and LDL-phospholipase A2 can be determined from EDTA plasma or serum and serum, respectively, using enzymatic immunoseparation techniques. Oxidized LDL, intercellular adhesion molecule-1 and interleukin-2 levels can be determined from serum using standard enzyme immunoassay techniques. These techniques are described in detail in standard textbooks, for example Tietz Fundamentals of Clinical Chemistry, 6th Ed. (Burtis, Ashwood and Borter Eds.), WB Saunders Company.
as §1

hsCRP = hsCRP in patients with diabetes mellitus-2 (Example 2); settings: 4 g/day, 12 weeks, on statin
Excerpt: as §4, §1

Ox-LDL = test: ANCHOR study, oxidized LDL; settings: ANCHOR ITT, week 12
Excerpt: as §4, with “Company. […]” for “Company.”

[2] = well-controlled diabetes (HbA1c < median of 6.8%)
[3] = less-controlled diabetes (HbA1c ≧ median of 6.8%)

## CC/C=C\C/C=C\C/C=C\C/C=C\C/C=C\CCCC(=O)OCC [AMR101, all-cis eicosa-5,8,11,14,17-pentaenoic acid ethyl ester]
[1]; twelve weeks
  Glycemic control: did not worsen glycemic control
[1]; well-controlled, less-controlled and all diabetic subjects, FIG. 4
  Changes in diabetes parameters including FPG, HbA1c, insulin and HOMA-IR: no statistically significant changes
TG; total diabetes
  Median placebo-adjusted percent change in TG from baseline to study end: −23.2%
TG; [2]
  Median placebo-adjusted percent change in TG from baseline to study end: −21.0%
Apo B; total diabetes
  Median placebo-adjusted percent change in Apo B from baseline to study end: −9.5%
Apo B; [2]
  Median placebo-adjusted percent change in Apo B from baseline to study end: −6.1%
Non-HDL-C; [3]
  Median placebo-adjusted percent change in Non-HDL-C from baseline to study end: −18.0%
Non-HDL-C; total diabetes
  Median placebo-adjusted percent change in Non-HDL-C from baseline to study end: −14.4%
Non-HDL-C; [2]
  Median placebo-adjusted percent change in Non-HDL-C from baseline to study end: −11.3%
RLP-C; [3]
  Median placebo-adjusted percent change in RLP-C from baseline to study end: −21.3%
RLP-C; total diabetes
  Median placebo-adjusted percent change in RLP-C from baseline to study end: −25.0%
RLP-C; [2]
  Median placebo-adjusted percent change in RLP-C from baseline to study end: −26.7%
hsCRP; [3]
  Median placebo-adjusted percent change in hsCRP from baseline to study end: −34.6%
hsCRP; total diabetes
  Median placebo-adjusted percent change in hsCRP from baseline to study end: −21.5%
hsCRP; [2]
  Median placebo-adjusted percent change in hsCRP from baseline to study end: −4.0%
Ox-LDL; 2 g/day
  Ox-LDL change from baseline (median): 2.6%
Ox-LDL; 4 g/day
  Ox-LDL change from baseline (median): −4.8%
